Literature values, collected in patent US20190124976A1, “NICOTINE DOSAGE REGIMEN” (priority 2014, published 2019).

Settings: reported to be as low as

CN1CCCC1c1cccnc1 (stereo not shown) [nicotine]
minimal lethal dose: 30 mg
